Experimental data from paper PMC11285368, “Chasing Red Herrings: Palladium Metal Salt Impurities Feigning KRAS Activity in Biochemical Assays” (Journal of Medicinal Chemistry, 2024).
Read-outs that look alike come from different tables or passages of the source.

How the values were obtained:
[1] = biological target: biotinylated GST (Schistosoma japonicum, UniProt P08515); experiment: Control assay (AlphaScreen Shortcut); type: biochemical
Method: This assay was developed to identify compounds that interfere with the assay format using AlphaLISA Glutathione Acceptor and AlphaScreen Streptavidin Donor beads. The assay was performed as described above using biotinylated GST as bridging reagent instead of KRAS^G12D and CRAF mix.

[2] = biological target: T1, KRAS^G12D(GTP)::CRAF (Homo sapiens, UniProt P01116, G12D); experiment: KRAS^G12D(GTP)::CRAF AlphaScreen; type: biochemical
T1 construct: KRAS^G12D 1–169, N-terminal 6His-tag, C-terminal avi-tag (Xtal BioStructures, Inc.); 6His (N); purchased Xtal BioStructures, Inc. (KRAS); Viva Biotech Ltd. (CRAF)
Method: The proteins have been used at these given final assay concentrations:
Test compounds dissolved in DMSO were dispensed onto assay plates (Proxiplate 384 PLUS, white, PerkinElmer; 6008289) using an Access Labcyte Workstation with the Labcyte Echo 555. For the chosen highest assay concentration of 100 μM, 150 nl of compound solution were transferred from a 10 mM DMSO compound stock solution. A series of 11 5-fold dilutions per compound was transferred to the assay plate, and compound dilutions were tested in duplicates. DMSO was added as backfill to a total volume of 150 nl. The assay was run on a fully automated robotic system in a darkened room below 100 Lux. […] After 60 min incubation time 5 μL of AlphaScreen bead mix in assay buffer were added into columns 1–23. Bead mix consisted of AlphaLISA Glutathione Acceptor Beads (PerkinElmer, cat. no. AL109) and Alpha-Screen Streptavidin Donor Beads (perkinElmer cat. no. 6760002) in assay buffer at a final assay concentration of 10 μg/mL each. Plates were kept at room temperature in a darkened incubator. After an additional 60 min incubation time the signal was measured on a PerkinElmer Envision HTS Multilabel Reader using the AlphaScreen specs from PerkinElmer.
IC50 values were calculated and analyzed with Boehringer Ingelheim’s MEGALAB IC50 application using a 4 parametric logistic model.

[3] = biological target: KRAS^G12D(GCP) (Homo sapiens, UniProt P01116, G12D); experiment: KRAS STD-NMR; type: binding; conditions: Batch 1; 10 μM KRAS^G12D(GCP), 1000 μM ligand; approximated visually
Method: Experiments were recorded with a saturation time Tsat of 2 s and a total recycle delay of 3.6 s with the standard Bruker pulse program stddiffgp19.2. The shaped pulse train was made of G4 pulses with a length of 50 ms at a power of 31 μW. Here on resonance saturation was applied at 100 Hz and off resonance at 20000 Hz. No spin locking was applied to reduce the protein background. Here, 256 scans were applied with a time domain of 32 000 and the watergate delay was set to 90 μs to reduce remaining HDO signal intensity. 10 μM KRAS^G12D(GCP) and 1000 μM ligand was added for the STD NMR experiments and the percent enhancements approximated visually since no additional analysis was performed.

[4] = biological target: KRAS “on” (Homo sapiens, UniProt P01116); experiment: NMR-based fragment screen, KD (NMR); type: binding
[5] = Control assay IC50, Batch 2 (resynthesized)
[6] = Batch 1, read-out: KRAS^G12D(GTP)::CRAF AlphaScreen IC50
[7] = Batch 2 (resynthesized), read-out: KRAS^G12D(GTP)::CRAF AlphaScreen IC50
[8] = confirmation screen, read-out: IC50, KRAS^G12D(GTP)::CRAF high-throughput AlphaScreen

Chain of biotinylated GST (P08515 whole entry): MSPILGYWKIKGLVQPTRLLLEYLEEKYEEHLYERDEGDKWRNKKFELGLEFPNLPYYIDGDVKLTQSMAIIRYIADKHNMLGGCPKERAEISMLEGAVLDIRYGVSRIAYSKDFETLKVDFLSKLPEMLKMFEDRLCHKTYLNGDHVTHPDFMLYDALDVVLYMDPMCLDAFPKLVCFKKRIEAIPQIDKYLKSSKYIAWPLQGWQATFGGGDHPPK

SMILES | IC50 ([1]; Control assay IC50, Batch 1) | IC50 [1, 5] | IC50 ([1]; Control assay IC50, Batch 3 (NP repurified)) | IC50 [2, 6] | IC50 [2, 7] | IC50 ([2]; Batch 3 (NP repurified), read-out: KRAS^G12D(GTP)::CRAF AlphaScreen IC50) | IC50 [2, 8] | KRAS STD-NMR percent enhancement [3] | Kd [4]
O=C1NCCc2c1[nH]c1c(-c3ccoc3)cccc21 [Cmpd 3, 8-(Furan-3-yl)-2H,3H,4H,9H-pyrido[3,4-b]indol-1-one] | 34 ± 2.6 µM | 69.7 ± 6.7 µM | > 100 µM | 11 ± 1.5 µM | 51.5 ± 3.5 µM | 78.3 ± 2.9 µM | 8.1 µM | 11% | 
O=C1NCCc2c1[nH]c1c(-c3ccncc3)cccc21 [Cmpd 4, 8-(Pyridin-4-yl)-2H,3H,4H,9H-pyrido[3,4-b]indol-1-one] | > 100 µM | > 100 µM |  | 8.6 ± 0.8 µM | 77.3 ± 55.7 µM |  | 6.3 µM | 7% | 
c1ccc2c(Cc3nc4ccncc4[nH]3)c[nH]c2c1 [FBS Hit 1] | > 100 µM |  |  | > 100 µM |  |  |  |  | 1200 µM
Clc1ccc2[nH]c3c(c2c1)CNCC3 [FBS Hit 2] | > 100 µM |  |  | > 100 µM |  |  |  |  | > 2000 µM
